Assay results: US20060235222A1, “Indole-derivative modulators of steroid hormone nuclear receptors” (ELI LILLY AND COMPANY, priority 2003, published 2006)

Columns and labels:
[1] = molecular target: T1, human GR (glucocorticoid receptor) (Homo sapiens, UniProt P04150); experiment: Alternative Binding Assay Protocol (Method 2), 293-GR lysate, 3H-dexamethasone competition; conditions: 0.3 nM 3H-dexamethasone
T1 construct: expressed in transfected cells; host or cells: 293 cells
T1 sequence (P04150 1-777): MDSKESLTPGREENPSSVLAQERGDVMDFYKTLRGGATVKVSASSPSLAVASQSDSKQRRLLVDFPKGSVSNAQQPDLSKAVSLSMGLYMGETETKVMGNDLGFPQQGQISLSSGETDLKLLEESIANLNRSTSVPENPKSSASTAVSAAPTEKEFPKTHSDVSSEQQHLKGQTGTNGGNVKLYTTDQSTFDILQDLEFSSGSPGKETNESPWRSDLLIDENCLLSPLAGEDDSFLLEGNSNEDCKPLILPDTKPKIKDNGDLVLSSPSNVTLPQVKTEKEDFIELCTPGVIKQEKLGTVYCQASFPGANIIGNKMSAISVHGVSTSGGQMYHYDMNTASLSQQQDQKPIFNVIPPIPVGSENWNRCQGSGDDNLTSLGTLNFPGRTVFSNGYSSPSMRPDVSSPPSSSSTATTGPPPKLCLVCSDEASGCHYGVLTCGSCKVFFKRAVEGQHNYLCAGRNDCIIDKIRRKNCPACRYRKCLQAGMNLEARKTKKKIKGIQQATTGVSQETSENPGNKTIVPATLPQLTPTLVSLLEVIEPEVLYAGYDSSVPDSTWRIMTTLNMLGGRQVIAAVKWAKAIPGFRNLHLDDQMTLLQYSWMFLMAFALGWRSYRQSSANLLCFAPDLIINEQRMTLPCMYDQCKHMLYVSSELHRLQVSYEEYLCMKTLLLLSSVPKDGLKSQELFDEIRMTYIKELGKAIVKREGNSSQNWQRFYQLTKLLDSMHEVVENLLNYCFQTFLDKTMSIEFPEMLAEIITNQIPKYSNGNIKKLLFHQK
Protocol: Alternative Binding Assay Protocol for MR, GR, AR, and PR (Method 2):
Cell lysates from 293 cells overexpressing human GR (glucocorticoid receptor), AR (androgen receptor), MR (mineralocorticoid receptor) or PR (progesterone-receptor) are used for competition binding assays to determine Ki values for test compounds. […] Competing compounds are added at various concentraions in half-log increments. Non-specific binding is determined in the presence of 500 nM dexamethasone for GR binding, 500 nM aldosterone for MR binding, or 500 nM methyltrienolone for AR and PR binding. The binding reaction (140 μl) is incubated for overnight at 4° C., then 70 μl of cold charcoal-dextran buffer (containing per 50 ml of assay buffer, 0.75 g of charcoal and 0.25 g of dextran) is added to each reaction. Plates are mixed 8 minutes on an orbital shaker at 4° C. Plates are then centrifuged at 3,000 rpm at 4° C. for 10 minutes. An aliquot of 120 μl of the mix is transferred to another 96-well plate and 175 μl of Wallac Optiphase “Hisafe 3” scintillation fluid is added to each well. Plates are sealed and shaken vigorously on an orbital shaker. After an incubation of 2 hrs, plates are read in a Wallac Microbeta counter. […] The Kd for ^3H-dexamethasone for GR binding, ^3H-methyltrienolone for AR binding, ^3H-aldosterone for MR binding, or ^3H-methyltrienolone for PR binding, is determined by saturation binding. The IC50 values for compounds are converted to Ki using Cheng-Prusoff equation and the Kd determined by saturation binding assay.

human MR = molecular target: T2, human MR (Homo sapiens, UniProt P08235); experiment: Mineralocorticoid Receptor Binding Assay (Method 1), [3H]-aldosterone competition; conditions: 0.5 nM [3H]-aldosterone, human MR expressed in Sf9 cells
T2 construct: The full length human MR gene is cloned from a human kidney or human brain cDNA library; inferred from own knowledge of the pAcHLT vector (N); made in house; host or cells: Sf9 insect cells (baculovirus)
T2 sequence (P08235 1-984): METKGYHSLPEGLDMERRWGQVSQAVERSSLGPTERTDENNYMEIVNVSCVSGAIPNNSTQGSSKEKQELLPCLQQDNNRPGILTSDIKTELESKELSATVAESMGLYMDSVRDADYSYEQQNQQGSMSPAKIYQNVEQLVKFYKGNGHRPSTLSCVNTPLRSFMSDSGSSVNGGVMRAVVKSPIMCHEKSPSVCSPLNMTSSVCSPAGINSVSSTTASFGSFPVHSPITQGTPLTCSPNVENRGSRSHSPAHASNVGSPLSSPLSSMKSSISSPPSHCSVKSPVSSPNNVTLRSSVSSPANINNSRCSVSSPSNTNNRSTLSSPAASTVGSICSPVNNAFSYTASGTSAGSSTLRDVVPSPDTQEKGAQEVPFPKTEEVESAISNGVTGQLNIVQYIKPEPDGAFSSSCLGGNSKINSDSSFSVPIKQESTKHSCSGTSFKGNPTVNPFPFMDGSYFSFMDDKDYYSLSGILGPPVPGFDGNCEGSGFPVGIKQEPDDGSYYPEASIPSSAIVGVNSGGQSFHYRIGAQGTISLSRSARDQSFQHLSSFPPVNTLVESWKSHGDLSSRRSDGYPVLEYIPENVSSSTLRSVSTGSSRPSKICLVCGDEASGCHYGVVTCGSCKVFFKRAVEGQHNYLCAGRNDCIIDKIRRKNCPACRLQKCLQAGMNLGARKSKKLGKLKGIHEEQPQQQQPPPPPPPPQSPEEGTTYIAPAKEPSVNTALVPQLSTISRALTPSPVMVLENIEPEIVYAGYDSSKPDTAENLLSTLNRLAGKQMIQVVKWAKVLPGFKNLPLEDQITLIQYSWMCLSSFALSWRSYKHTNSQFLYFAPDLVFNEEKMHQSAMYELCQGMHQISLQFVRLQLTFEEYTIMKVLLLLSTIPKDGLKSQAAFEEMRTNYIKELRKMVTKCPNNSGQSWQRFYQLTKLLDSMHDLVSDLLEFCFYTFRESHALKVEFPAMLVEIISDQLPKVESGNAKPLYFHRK
Procedure, shortened: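 Full-length human MR expressed in Sf9 cells via baculovirus; lysate supernatant (about 20-25 μg protein) incubated with 0.5 nM [3H]-aldosterone and test compound for about 16 h at 4° C. Buffer was Tris/molybdate/phosphate/pyrophosphate with 10% glycerol, pH 7.5; filter-bound complex counted by scintillation.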

SMILES	melting point	Ki [1]	Ki (human MR)
CCC(CC)(c1ccc2sc(C)nc2c1)c1c[nH]c2c(NS(C)(=O)=O)cccc12 [Example 140, N-{3-[1-Ethyl-1-(2-methyl-benzothiazol-5-yl)-propyl]-1H-indol-7-yl}-methanesulfonamide]	112 to 117 °C	–	–
CCC(CC)(c1ccc2oc(C)nc2c1)c1c[nH]c2c(NS(C)(=O)=O)cccc12 [Example 145, N-{3-[1-Ethyl-1-(2-methyl-benzooxazol-5-yl)-propyl]-1H-indol-7-yl}-methanesulfonamide]	152 to 160 °C	–	–
CCC(CC)(c1ccc2nc(C(F)(F)F)[nH]c2c1)c1c[nH]c2c(NS(C)(=O)=O)cccc12 [Example 151, N-{3-[1-Ethyl-1-(2-trifluoromethyl-3H-benzoimidazol-5-yl)-propyl]-1H-indol-7-yl}-methanesulfonamide]	225 to 235 °C	–	–
CCC(CC)(c1ccc2c(ccn2C(C)=O)c1)c1c[nH]c2c(NS(C)(=O)=O)cccc12 [Example 156, N-{3-[1-(1-Acetyl-1H-indol-5-yl)-1-ethyl-propyl]-1H-indol-7-yl}-methanesulfonamide]	125 to 130 °C	–	–
CCC(CC)(c1cccc2oc(C)cc12)c1c[nH]c2c(NS(C)(=O)=O)cccc12 [Example 160, N-{3-[1-Ethyl-1-(2-methyl-benzofuran-4-yl)-propyl]-1H-indol-7-yl}-methanesulfonamide]	85 to 90 °C	–	–
C[C@](c1ccc(Cl)cc1)(c1c[nH]c2c(NS(C)(=O)=O)cccc12)C1CC1 [Example 164]	–	< 500 nM	< 500 nM
CCC(c1ccc(F)cc1)(c1c[nH]c2c(NS(C)(=O)=O)cccc12)C1CC1 (centres unmarked) [Example 165]	–	< 500 nM	< 500 nM
CC(c1ccccc1F)(c1c[nH]c2c(NS(C)(=O)=O)cccc12)C1CC1 (centres unmarked) [Example 168]	–	< 500 nM	< 500 nM
CCc1ccc(C(CC)(CC)c2c[nH]c3c(NS(C)(=O)=O)cccc23)cc1 [Example 171]	–	< 500 nM	–
C[C@](c1ccccc1F)(c1c[nH]c2c(NS(C)(=O)=O)cccc12)C1CC1 [Example 172]	–	< 500 nM	< 500 nM
C[C@@](c1ccc(Cl)cc1)(c1c[nH]c2c(NS(C)(=O)=O)cccc12)C1CC1 [Example 174]	–	< 500 nM	< 500 nM
CC(c1ccc2c(c1)OCO2)(c1c[nH]c2c(NS(C)(=O)=O)cccc12)C1CC1 (centres unmarked) [Example 175]	–	< 500 nM	< 500 nM
CCCC(c1ccc(F)cc1)(c1c[nH]c2c(NS(C)(=O)=O)cccc12)C1CC1 (centres unmarked) [Example 179]	–	< 500 nM	< 500 nM
CCC(CC)(c1ccc2oc(C)cc2c1)c1c[nH]c2c(NS(C)(=O)=O)cccc12 [Example 181]	–	< 500 nM	< 500 nM
CCC(CC)(c1ccc(C(C)C)cc1)c1c[nH]c2c(NS(C)(=O)=O)cccc12 [Example 182]	–	< 10000 nM	< 500 nM
CC(C)CC(C)(c1ccccc1)c1c[nH]c2c(NS(C)(=O)=O)cccc12 (centres unmarked) [Example 187]	–	< 500 nM	< 500 nM
CCC(CC)(c1ccc2oc(C)nc2c1)c1c[nH]c2c(NS(C)(=O)=O)cccc12 [Example 191]	–	< 1000 nM	< 500 nM
CCC(CC)(c1ccc2nc(C)oc2c1)c1c[nH]c2c(NS(C)(=O)=O)cccc12 [Example 193]	–	< 500 nM	< 500 nM
CCC(CC)(c1ccc2c(ccn2C(C)=O)c1)c1c[nH]c2c(NS(C)(=O)=O)cccc12 [Example 195]	–	< 1000 nM	< 500 nM
CCC(CC)(c1ccc2nc(NC(C)=O)sc2c1)c1c[nH]c2c(NS(C)(=O)=O)cccc12 [Example 199]	–	< 500 nM	< 1000 nM

Results, then the compound that gave them:

melting point	Ki [1]	Ki (human MR)	SMILES
266 to 268 °C	–	–	CCC(CC)(c1ccc2sc(NC(C)=O)nc2c1)c1c[nH]c2c(NS(C)(=O)=O)cccc12 [Example 150, N-{5-[1-Ethyl-1-(7-methanesulfonylamino-1H-indol-3-yl)-propyl]-benzothiazol-2-yl}-acetamide]
100 to 105 °C	–	–	CCC(CC)(c1ccc2oc(C)cc2c1)c1c[nH]c2c(NS(C)(=O)=O)cccc12 [Example 155, N-{3-[1-Ethyl-1-(2-methyl-benzofuran-5-yl)-propyl]-1H-indol-7-yl}-methanesulfonamide]
–	< 500 nM	< 500 nM	CC(c1ccc(Cl)cc1)(c1c[nH]c2c(NS(C)(=O)=O)cccc12)C1CC1 (centres unmarked) [Example 167]
–	< 500 nM	< 500 nM	Cc1ccc(C(C)(c2c[nH]c3c(NS(C)(=O)=O)cccc23)C2CC2)cc1 (centres unmarked) [Example 169]
–	< 500 nM	< 500 nM	COc1ccc(C(C)(c2c[nH]c3c(NS(C)(=O)=O)cccc23)C2CC2)cc1 (centres unmarked) [Example 170]
–	< 500 nM	< 500 nM	C[C@](c1ccc(F)cc1)(c1c[nH]c2c(NS(C)(=O)=O)cccc12)C1CC1 [Example 173]
–	< 500 nM	–	CCCC(CCC)(c1ccc(OC)cc1)c1c[nH]c2c(NS(C)(=O)=O)cccc12 [Example 176]
–	< 500 nM	< 500 nM	CC(c1ccccc1)(c1c[nH]c2c(NS(C)(=O)=O)cccc12)C1CC1 (centres unmarked) [Example 178]
–	< 500 nM	< 500 nM	C[C@@](c1ccccc1F)(c1c[nH]c2c(NS(C)(=O)=O)cccc12)C1CC1 [Example 180]
–	< 500 nM	< 500 nM	CCCCC(c1ccc(F)cc1)(c1c[nH]c2c(NS(C)(=O)=O)cccc12)C1CC1 (centres unmarked) [Example 185]
–	< 500 nM	< 500 nM	C[C@@](c1ccc(F)cc1)(c1c[nH]c2c(NS(C)(=O)=O)cccc12)C1CC1 [Example 186]
–	< 500 nM	< 500 nM	CC1(c2c[nH]c3c(NS(C)(=O)=O)cccc23)CCCCc2ccccc21 (centres unmarked) [Example 189]
–	< 500 nM	< 500 nM	CCC(CC)(c1ccc2sc(C)nc2c1)c1c[nH]c2c(NS(C)(=O)=O)cccc12 [Example 190]
–	< 500 nM	< 500 nM	CCC(CC)(c1ccc(N2CCOCC2)cc1)c1c[nH]c2c(NS(C)(=O)=O)cccc12 [Example 197]
